Structures can show the parent of a compound that is named as a salt.

We go through 7 compounds from patent US12208080B2, “Compositions and methods for modulation of extracellular vesicle release and treatment of neurological disorders” (GEORGE MASON RESEARCH FOUNDATION, INC., priority 2018, dated 2025).

Holding throughout (type): cell-based
In test [1] the test system is HTLV-1 infected T-cells (HUT 102). Put plainly: EV release from HTLV-1 infected T-cells, Western blot for Tax, CD63, CD9. The settings on record: 10 μM AZT, 10K units IFN-α or both, 5 days, FIG. 6. The method, then:
HTLV-1 infected T-cells (HUT 102) were treated with 10 μM AZT, 10K units of IFN-α, or a combination of the two for 5 days. Resulting supernatants were enriched for extracellular vesicles using NT80/82 and analyzed by Western blot for the presence of Tax, CD63, CD9, and Actin.
The incorporation of the human T-lymphotropic virus type 1 (HTLV-1) protein, Tax, into extracellular vesicles has been implicated in enhanced survival of recipient cells thereby contributing to a cancer phenotype. Applicant examined the effect of Azidothymidine (AZT) and interferon-α (IFN-α), both therapeutics commonly used in the treatment of HTLV-1, on the release of EVs from HTLV-1 infected cells. Here, HTLV-1 infected T-cells (HUT 102) were treated with 10 μM AZT, 10K units of IFN-α, or a combination of the two for 5 days. Resulting supernatants were enriched for extracellular vesicles using NT80/82 and analyzed by Western blot for the presence of Tax, CD63, CD9, and Actin.
(In general: Immunoblotting shows a protein as a band on a membrane.)

The test system of test [2] is autophagy proteins (p62, LC3, ATG12-ATG5, ATG12, Beclin-1) in U1 cells. Put plainly: Autophagy protein profile, CBD versus autophagy drugs, in U1 cells and their EVs (Western blot). As to conditions: 5 days; for EV-associated LC3 II / EV-associated LC3 I / EV-associated p62: Bafilomycin A1 50 nM, SB 203580 20 μM, Wortmannin 2 nM; for EV-associated LC3 II: vs untreated infected control; for EV-associated LC3 I / EV-associated p62: CBD 10 μM, lower panel. The method, then:
FIGS. 18A-18B are gels showing CBD promotes autophagy turnover, resulting in a decrease in extracellular autophagosomal secretion. A) U1 cells (1×10^6) were treated±CBD (10 μM) for the following incubation periods: 0, 6, 24, and 48 hours. Cells were pelleted and lysed, exosomes from supernatants were enriched with NT80/82 beads overnight at 4° C. Samples were run through SDS-PAGE and western blotted for autophagy proteins (p62 and LC3), and Actin. B) U1 cells (1×10^6) were treated±10 μM CBD (every day), Rapamycin (50 nM), INK128 (50 nM), Bafilomycin A1 (50 nM), SB 203580 (20 μM), Wortmannin (2 nM) for a 5-day incubation period. Cells were pelleted and lysed, exosomes from supernatants were enriched using NT80/82 beads overnight at 4° C. Samples were run through SDS-PAGE and western blotted for autophagy proteins (p62, LC3, ATG12-ATG5, ATG12, Beclin-1), and Actin.
FIGS. 21A-21K are graphs showing normalized densitometry analysis of CBD and autophagy drug treatment on HIV-1 infected monocytes. Intracellular (A) p62, (B) LC3 I, (C) LC3 II, (D) ATG12-ATG5 complex, (E) ATG12, and (F) Beclin-1, and extracellular (G) p62, (H) LC3 I, (I) LC3 II, (J) ATG12-ATG5 complex, and (K) Beclin-1 densitometry counts were calculated from the Western blot data in FIG. 5B, normalized to respective intracellular and extracellular Actin levels, and plotted.
To determine the specific points at which CBD inhibits intracellular and extracellular autophagosome formation and secretion, we compared CBD treatment of U1 monocytes with known inhibitors of different points in the autophagy pathway. Cell viability was assessed among a panel of titrated autophagy drugs and the least toxic concentration per drug was utilized (FIG. 20). We treated U1 cells with CBD (10 μM) every day, Rapamycin (50 nM), INK128 (50 nM), Bafilomycin A1 (50 nM), SB 203580 (20 μM), or Wortmannin (2 nM) for 5 days. Our rationale for using these drugs was that they regulate different steps of autophagy including nucleation inhibition by inhibiting MTOR activity (Rapamycin, INK128) or by inhibiting pre-autophagosomal VPS34 complex activity (Wortmannin, SB 203580), and autophagosome-lysosome fusion inhibition (Bafilomycin A1). Therefore, a side-by-side comparison to CBD would potentially allow for a better definition of which step of autophagosome formation is primarily regulated by CBD. U1 cells were treated with the autophagy regulators and harvested along with their corresponding supernatants for further analysis using Western blot against p62, LC3, ATG12-ATG5 complex, free ATG12, Beclin-1, and Actin. Results in FIG. 18B (intracellular proteins, top panel) show autophagy protein profiles associated with the various autophagy regulators. […] The corresponding supernatants were enriched for EVs and also analyzed for the presence of autophagy proteins.

Test [3] concerns RNA polymerase II (Pol II) loading. Put plainly: Chromatin immunoprecipitation of Pol II, qPCR for TAR DNA. The settings on record: U1; CBD 10 μM, Flavo 50 nM; 2-hour and 6-hour; FIG. 15C. How it is done: FIGS. 15A-15C are graphs and gels showing cannabidiols lower intracellular viral transcription and downstream viral products. U1 cells (1×10^6) were treated with a titration of CBD (1, 5, 10 μM) and THC (1, 5, 10 μg/mL) every day for 5 days. A) Intracellular RNA was isolated and analyzed through RT-qPCR for HIV-1 viral transcripts TAR and env. Each bar represents an average of three independent replicates. B) U1 cells (2×10^6) were treated with a titration of CBD (1, 5, 10 μM) every day for 5 days. Cells pellets were lysed, run through SDS-PAGE, and western blotted for (p-)/NF-κB, autophagosomal markers (p63, LC3), EV biogenesis marker VPS4, viral markers (gp120, Nef, p24), and Actin. C) U1 cells (5×10^6) were treated±CBD (10 μM) and Flavopiridol hydrochloride (50 nM; indicated as Flavo) and incubated for the following time points: 0 minutes, 2 hours and 6 hours. Cells were cross-linked with 1% formaldehyde solution and ChIP-ed for IgG and Pol II. ChIP DNA samples were analyzed via qPCR for TAR and env. Student's t-test was used for statistical analysis, where *p-value≤0.05; **p-value≤0.01, ***p-value≤0.001. […]
U1 monocytes were treated with CBD (10 μM) and Flavo (50 nM) for short periods (0, 2 and 6 hours) due to the fact that HIV-1 transcription activity is a rapid event that can be scored using chromatin immunoprecipitation (ChIP) assay for factor occupancy. […]

The subject of test [4] is ESCRT pathway proteins (VPS4). Put plainly: Western blot of ESCRT pathway proteins in U1 whole cell extracts. The settings on record: 0.1, 1, 10 μM, 5 days, FIG. 5B. The method, then: U1 cells were pretreated with cART (45 μM) for 3 days followed by an additional dose of cART and tetracycline antibiotics (10 nM) for 5 days. Cells were lysed, and extracts were used for Western blot analysis for ESCRT proteins [ESCRT-1 (TSG101), -11 (EAP20, EAP45), -III (CHMP6), and exit (VPS4)] and Actin levels. […]
U1 cells were treated with a titration of ethylene glycol-bis(p-aminoethyl ether)-N,N,N′,N′-tetraacetic acid (EGTA) (0.1, 1, and 10 μM) for 5 days and whole cell extracts were analyzed by Western blot for ESCRT pathway proteins and Actin.
Tetracycline class antibiotics including tetracycline, oxytetracycline, minocycline, doxycycline, methacycline, and demeclocycline have the potential to mitigate EV-associated pathogenesis by also modulating EV release. […] The tetracycline antibiotic family are chelators of divalent cations, including Ca2+ and Mg2+. Therefore, Applicant also tried to determine whether the chelating property of Oxytetracycline could possibly be responsible for the manipulation of the ESCRT pathway proteins levels.

The mark [5] stands for this setting: CBD 10 μM every day, Rapamycin 50 nM, INK128 50 nM, FIG. 18B top panel.

For IFN-α, the “amount of vesicles released (CD63 and CD9)” value in test [1] is given as “decreases the amount of vesicles released”.
Take `C[S+]([O-])c1ccc(-c2nc(-c3ccncc3)c(-c3ccc(F)cc3)[nH]2)cc1` (stereo not drawn) [SB 203580]: the “EV-associated LC3 II” value in test [2] was “elevated levels”. For the same compound, in test [2] (Rapamycin 50 nM, INK128 50 nM), the “EV-associated LC3 I” value is given as “elevated levels” and the “EV-associated p62” value is recorded as “sustained levels”.
Regarding `CC(C)n1nc(-c2ccc3oc(N)nc3c2)c2c(N)ncnc21` [INK128], in test [2] (setting [5]), the “intracellular ATG12-ATG5” value was “low levels”, the “intracellular Beclin-1” value is recorded as “high levels” and the “intracellular LC3 I” value is recorded as “low levels”. In addition, in test [2] (Rapamycin 50 nM, INK128 50 nM), the “EV-associated LC3 I” value is “reduction” and the “EV-associated p62” value was “reduction”.
Turning to `CO/C1=C\C(C)=C\[C@@H](C)[C@@H](O)[C@@H](C)C/C(C)=C/C=C/[C@H](OC)[C@@H]([C@@H](C)[C@@H](O)[C@H](C)[C@@]2(O)C[C@@H](O)[C@H](C)[C@@H](C(C)C)O2)OC1=O` [Bafilomycin A1], the “EV-associated LC3 II” value in test [2] is given as “elevated levels”. In test [2] (Rapamycin 50 nM, INK128 50 nM), the “EV-associated LC3 I” value is on record as “elevated levels” and the “EV-associated p62” value is listed as “sustained levels”.
`Cc1cn([C@H]2C[C@H](N=[N+]=[N-])[C@@H](CO)O2)c(=O)[nH]c1=O` [AZT, 3′-azido-2′3′-di deoxythymidine]: the “amount of vesicles released (CD63 and CD9)” value in test [1] is given as “increase in the amount of vesicles release”.
Regarding `CN1CC[C@H](c2c(O)cc(O)c3c(=O)cc(-c4ccccc4Cl)oc23)[C@H](O)C1` [Flavo, Flavopiridol hydrochloride hydrate], the “Pol II-associated TAR DNA versus untreated” value in test [3] was “statistically significant decreases”.
With `O=C(O)CN(CCOCCOCCN(CC(=O)O)CC(=O)O)CC(=O)O` [EGTA, ethylene glycol-bis(p-aminoethyl ether)-N,N,N′,N′-tetraacetic acid], the “levels of measured ESCRT proteins” value in test [4] is “no change”.
